Measurements taken from patent US11680297B2, “Activities of multiple cancer-related pathways are associated with BRAF mutation and predict the resistance to BRAF/MEK inhibitors in melanoma cells” (THE JOHNS HOPKINS UNIVERSITY, priority 2013, dated 2023).

Tests used:
RPMI-7951 cells = assay: Cell proliferation (MTT) assay; format: cell-based; settings: Homo sapiens, RPMI-7951, 72 h treatment
Method: (§1) After 72 h treatments, cell culture was added with 10 μl of 5 mg/ml MTT agent (3-(4,5-Dimethylthiazol-2-yl)-2,5-diphenyltetrazolium bromide, Sigma St. Louis, Mo.) and incubated for 4 h, followed by addition of 100 μl of 10% SDS solution and a further incubation overnight. The plates were then read on a microplate reader using the test wavelength of 570 nm and the reference wavelength of 670 nm. Five duplicates were done to determine each data point. GI50 was calculated as previously reported (21).

SK-MEL-24 cells = assay: Cell proliferation (MTT) assay; format: cell-based; settings: Homo sapiens, SK-MEL-24, 72 h treatment
Method: as §1

[1] = system: PLX4032-resistant melanoma cell lines; settings: two PLX4032-resistant melanoma cell lines; cited from earlier work

GI50 (SK-MEL-24 cells) [nM]	SMILES	GI50 (RPMI-7951 cells) [nM]	effect in combination with PLX4032 [1]
> 1000	Cn1cnc2c(F)c(Nc3ccc(Br)cc3Cl)c(C(=O)NOCCO)cc21 [AZD6244, selumetinib]	> 1000	–
–	CS(=O)(=O)CCNCc1ccc(-c2ccc3ncnc(Nc4ccc(OCc5cccc(F)c5)c(Cl)c4)c3c2)o1 [Lapatinib]	–	apparently synergistic effects
